# Legend:
# ADCY3 promoter = ADCY3 promoter methylation after in vitro demethylation (bisulfite sequencing); format: cell-based, human; conditions: KATO III cells, 10 μM, 96 hrs, FIG. 5D
# Experimental: To assay the methylation status of the ADCY3 promoter, genomic DNA was bisulfite-treated using the EZ DNA Methylation-Gold Kit (ZYMO Research, USA), and treated with methylation-specific PCR primers (Table 3) that were designed using EpiDesigner (Sequenom, USA).
# A methylation-specific high-resolution melting assay (MS-HRM) was performed using 10 ng of bisulfite-treated genomic DNA and ResoLight dye in a LightCycler 480 (Roche Applied Science) according to the manufacturer's protocol. Results were analyzed using Gene Scanning software (Roche). For bisulfite sequencing, the promoter region containing 39 CpG sites was amplified from the genomic DNA of bisulfite-treated gastric cells, cloned into the TOPO-TA vector (Invitrogen), and sequenced using the 3730xl DNA analyzer (Applied Biosystems).
# To investigate the effects of promoter demethylation on ADCY3 expression, KATO III cells were incubated for 96 hrs in a culture medium with or without 5-Aza-2′-deoxycytidine (5-Aza-dC; Sigma Aldrich, USA) at a final concentration of 10 μM, and the mRNA level of ADCY3 was measured using qRT-PCR.
# ADCY3 = ADCY3 mRNA level by qRT-PCR after demethylation; format: cell-based, human; conditions: KATO III cells, 10 μM, 96 hrs, relative to the negative control, FIG. 5E
# Experimental: qRT-PCR reactions were performed using a LightCycler 480 (Roche Applied Science, UK) and ABI 7500 Fast Real-Time PCR system (Applied Biosystems). Results were quantified either by using β-actin for normalization (relative quantification), or by standard curve-based absolute quantification. To investigate the effects of promoter demethylation on ADCY3 expression, KATO III cells were incubated for 96 hrs in a culture medium with or without 5-Aza-2′-deoxycytidine (5-Aza-dC; Sigma Aldrich, USA) at a final concentration of 10 μM, and the mRNA level of ADCY3 was measured using qRT-PCR.
compound,measurement,setting,value
"Nc1ncn([C@H]2C[C@H](O)[C@@H](CO)O2)c(=O)n1 [5-Aza-dC, 5-Aza-2′-deoxycytidine]",methylation of CpG sites in the ADCY3 promoter,ADCY3 promoter,demethylation of CpG sites
same,ADCY3 mRNA expression level,ADCY3,recovery of ADCY3 mRNA expression level

# Reference: patent US10435752B2, “Use of ADCY3 for diagnosis and treatment of gastric cancer” (NATIONAL CANCER CENTER, priority 2012, dated 2019)
